US20230398130A1, “METHODS AND COMPOSITIONS FOR DIFFERENTIATING STEM CELLS” (Massachusetts Institute of Technology, priority 2020, published 2023)

Assays:
[1] = test system: ISC-enriched organoids; assay: Primary screen, 384-well 2.5-D organoid differentiation (ENR+CD, 6 days, Target Selective Inhibitor Library, vs whole-plate median): ATP (CellTiter-Glo 3D, CTG); settings: for Dose.FC.CTG (log 2 fold change): vs plate median; for Dose.FC.CTG: FC vs plate median; for Z.CTG: standard z score of FC
[2] = test system: ISC-enriched organoids; assay: Primary screen, 384-well 2.5-D organoid differentiation (ENR+CD, 6 days): carbachol-induced lysozyme secretion (LYZ.S); assay type: cell-based, murine; settings: for Dose.FC.LYZ.S (log 2 fold change): vs plate median; for Dose.FC.LYZ.S: FC vs plate median
From the text: (§1) High-throughput screening.

[3] = test system: ISC-enriched organoids; assay: Primary screen, 384-well 2.5-D organoid differentiation (ENR+CD, 6 days): basal lysozyme secretion (LYZ.NS); assay type: cell-based, murine; settings: for Dose.FC.LYZ.NS (log 2 fold change): vs plate median; for Dose.FC.LYZ.NS: FC vs plate median; for Z.LYZ.NS: standard z score of FC
From the text: as §1

[4] = dose 0.08 uM (1st of 4 lines per treatment; dose not printed in this part)
[5] = dose 0.40 uM (2nd of 4 lines per treatment; dose not printed in this part)
[6] = dose 2.00 uM (3rd of 4 lines per treatment; dose not printed in this part)
[7] = dose 10.00 uM (4th of 4 lines per treatment; dose not printed in this part)
[8] = primary screen, dose 0.08 uM, ENR+CD 6 days
[9] = primary screen, dose 0.40 uM, ENR+CD 6 days
[10] = primary screen, dose 2.00 uM, ENR+CD 6 days
[11] = primary screen, dose 10.00 uM, ENR+CD 6 days

## O=C(Nc1ccncc1)c1cc([N+](=O)[O-])ccc1Cl [T0070907]
[1]; Dose 0.08 uM, primary screen
  Z.CTG (standard z score): 0.267
  Dose.FC.CTG (log 2 fold change): 0.112
[1]; Dose 0.40 uM, primary screen
  Z.CTG (standard z score): 0.062
  Dose.FC.CTG (log 2 fold change): 0.026
[1]; Dose 2.00 uM, primary screen
  Z.CTG (standard z score): 0.119
  Dose.FC.CTG (log 2 fold change): 0.050
[1]; Dose 10.00 uM, primary screen
  Z.CTG (standard z score): −1.806
  Dose.FC.CTG (log 2 fold change): −0.756
[2]; Dose 0.08 uM, primary screen
  Dose.FC.LYZ.S (log 2 fold change): −0.005
[2]; Dose 0.40 uM, primary screen
  Dose.FC.LYZ.S (log 2 fold change): −0.001
[2]; Dose 2.00 uM, primary screen
  Dose.FC.LYZ.S (log 2 fold change): 0.081
[2]; Dose 10.00 uM, primary screen
  Dose.FC.LYZ.S (log 2 fold change): −0.312
[3]; Dose 0.08 uM, primary screen
  Z.LYZ.NS (standard z score): 0.084
  Dose.FC.LYZ.NS (log 2 fold change): 0.010
[3]; Dose 0.40 uM, primary screen
  Z.LYZ.NS (standard z score): −0.029
  Dose.FC.LYZ.NS (log 2 fold change): −0.003
[3]; Dose 2.00 uM, primary screen
  Z.LYZ.NS (standard z score): 0.373
  Dose.FC.LYZ.NS (log 2 fold change): 0.043
[3]; Dose 10.00 uM, primary screen
  Z.LYZ.NS (standard z score): −1.897
  Dose.FC.LYZ.NS (log 2 fold change): −0.218

## CCOC(=O)c1cncn1[C@H](C)c1ccccc1 [Etomidate]
[1]; Dose 0.08 uM, ENR+CD, 6 days
  Dose.FC.CTG: 0.084 log 2 fold change
[1]; Dose 0.08 uM
  Z.CTG: 0.201
[1]; Dose 0.40 uM, ENR+CD, 6 days
  Dose.FC.CTG: 0.006 log 2 fold change
[1]; Dose 0.40 uM
  Z.CTG: 0.014
[1]; Dose 2.00 uM, ENR+CD, 6 days
  Dose.FC.CTG: 0.163 log 2 fold change
[1]; Dose 2.00 uM
  Z.CTG: 0.389
[1]; Dose 10.00 uM, ENR+CD, 6 days
  Dose.FC.CTG: 0.039 log 2 fold change
[1]; Dose 10.00 uM
  Z.CTG: 0.094
[2]; Dose 0.08 uM, ENR+CD, 6 days
  Dose.FC.LYZ.S: 0.053 log 2 fold change
[2]; Dose 0.40 uM, ENR+CD, 6 days
  Dose.FC.LYZ.S: 0.048 log 2 fold change
[2]; Dose 2.00 uM, ENR+CD, 6 days
  Dose.FC.LYZ.S: 0.054 log 2 fold change
[2]; Dose 10.00 uM, ENR+CD, 6 days
  Dose.FC.LYZ.S: −0.008 log 2 fold change
[3]; Dose 0.08 uM, ENR+CD, 6 days
  Dose.FC.LYZ.NS: −0.008 log 2 fold change
[3]; Dose 0.08 uM
  Z.LYZ.NS: −0.065
[3]; Dose 0.40 uM, ENR+CD, 6 days
  Dose.FC.LYZ.NS: 0.037 log 2 fold change
[3]; Dose 0.40 uM
  Z.LYZ.NS: 0.318
[3]; Dose 2.00 uM, ENR+CD, 6 days
  Dose.FC.LYZ.NS: 0.015 log 2 fold change
[3]; Dose 2.00 uM
  Z.LYZ.NS: 0.131
[3]; Dose 10.00 uM, ENR+CD, 6 days
  Dose.FC.LYZ.NS: −0.001 log 2 fold change
[3]; Dose 10.00 uM
  Z.LYZ.NS: −0.010

## C=C1C(=O)O[C@H]2[C@H]1CC/C(C)=C/CC[C@@]1(C)O[C@@H]21 [(−)-Parthenolide]
[1]; [4]
  SSMD.CTG_Rep (strictly standardized mean difference): 0.498
[1]; [5]
  SSMD.CTG_Rep (strictly standardized mean difference): 0.736
[1]; [6]
  SSMD.CTG_Rep (strictly standardized mean difference): 0.482
[1]; [7]
  SSMD.CTG_Rep (strictly standardized mean difference): 0.257
[1]; [8]
  Dose.FC.CTG: 0.135 log 2 fold change
[1]; primary screen, dose 0.08 uM
  Z.CTG: 0.322
[1]; [9]
  Dose.FC.CTG: 0.228 log 2 fold change
[1]; primary screen, dose 0.40 uM
  Z.CTG: 0.544
[1]; [10]
  Dose.FC.CTG: 0.157 log 2 fold change
[1]; primary screen, dose 2.00 uM
  Z.CTG: 0.376
[1]; [11]
  Dose.FC.CTG: 0.157 log 2 fold change
[1]; primary screen, dose 10.00 uM
  Z.CTG: 0.374
[2]; [4]
  SSMD.LYZ.S_Rep (strictly standardized mean difference): 0.679
  Z.LYZ.S (standard z score): 0.799
[2]; [5]
  SSMD.LYZ.S_Rep (strictly standardized mean difference): 0.763
  Z.LYZ.S (standard z score): 1.067
[2]; [6]
  SSMD.LYZ.S_Rep (strictly standardized mean difference): 0.506
  Z.LYZ.S (standard z score): 0.441
[2]; [7]
  SSMD.LYZ.S_Rep (strictly standardized mean difference): 0.345
  Z.LYZ.S (standard z score): 0.530
[2]; [8]
  Dose.FC.LYZ.S: 0.124 log 2 fold change
[2]; [9]
  Dose.FC.LYZ.S: 0.165 log 2 fold change
[2]; [10]
  Dose.FC.LYZ.S: 0.068 log 2 fold change
[2]; [11]
  Dose.FC.LYZ.S: 0.082 log 2 fold change
[3]; [4]
  SSMD.LYZ.NS_Rep (strictly standardized mean difference): 0.601
[3]; [5]
  SSMD.LYZ.NS_Rep (strictly standardized mean difference): 0.480
[3]; [6]
  SSMD.LYZ.NS_Rep (strictly standardized mean difference): 0.920
[3]; [7]
  SSMD.LYZ.NS_Rep (strictly standardized mean difference): 0.998
[3]; [8]
  Dose.FC.LYZ.NS: 0.058 log 2 fold change
[3]; primary screen, dose 0.08 uM
  Z.LYZ.NS: 0.506
[3]; [9]
  Dose.FC.LYZ.NS: 0.067 log 2 fold change
[3]; primary screen, dose 0.40 uM
  Z.LYZ.NS: 0.583
[3]; [10]
  Dose.FC.LYZ.NS: 0.089 log 2 fold change
[3]; primary screen, dose 2.00 uM
  Z.LYZ.NS: 0.776
[3]; [11]
  Dose.FC.LYZ.NS: 0.133 log 2 fold change
[3]; primary screen, dose 10.00 uM
  Z.LYZ.NS: 1.159
